Measured values from patent US20240216369A1, “THE USE OF A SPLICING MODULATOR FOR A TREATMENT SLOWING PROGRESSION OF HUNTINGTON'S DISEASE” (Novartis AG, priority 2019, published 2024).

Experiment: Pediatric ACAT/PBPK model (Type 1 SMA patients)
Set-up: species or system human
Conditions: Type 1 SMA patients 33-39 months; optimized on observed data
Description: The pharmacokinetic (PK) model in adult subjects was developed using an Advanced Compartmental And Transit (ACAT)/Physiologically Based Pharmacokinetic (PBPK) model in GastroPlus™ software, Version 9.6 (SimulationPlus, Lancaster, CA, USA).
• Principle set-up of a pediatric ACAT/PBPK model in GastroPlus™ software including physico-chemical parameters, physiological parameters, and formulation factors. The ACAT model was linked to a full PBPK model in which tissue-to-plasma concentration ratios were estimated via in silico method provided by GastroPlus™ software. • Estimation of the clearance (CL) using plasma concentrations of branaplam from an open-label multi-part first-in-human proof of concept study of oral branaplam, Part 1 only. The aim of Part 1 of this study was to determine the safety and tolerability of ascending weekly doses and to estimate the maximum tolerated dose (MTD) of oral/enteral branaplam (formulation described in Example 3) in infants with Type 1 SMA. All patients had exactly 2 copies of the SMN2 gene. Patients were dosed once weekly with branaplam. The branaplam doses were escalated in subsequent cohorts until MTD was determined or when PK results confirmed that the MTD could not be reached due to a potential pharmacokinetic exposure plateau at higher doses. The starting dose referring to the free base was 6 mg/m^2 (equal to 0.3125 mg/kg). Subsequent doses were 12 mg/m^2, 24 mg/m^2, 48 mg/m^2 and 60 mg/m^2 (0.625 mg/kg, 1.25 mg/kg, 2.5 mg/kg and 3.125 mg/kg, respectively). 14 patients were enrolled in Part 1; 13 patients were exposed to branaplam. The duration of exposure ranged from 4-33 months, 7 patients remain in the study. Six of the 7 patients are receiving 60 mg/m^2, 1 patient is receiving 48 mg/m^2.
Observed plasma concentrations of branaplam in 33-39 months old Type 1 SMA patients after nominal branaplam doses of 60 mg/m^2 (3.125 mg/kg, first-in-human proof of concept study with branaplam as described above) were used to build the pediatric ACAT/PBPK by means of GastroPlus™ software. […]

CC1(C)CC(Oc2ccc(-c3ccc(-c4cn[nH]c4)cc3O)nn2)CC(C)(C)N1 [Compound 18, 5-(1H-pyrazol-4-yl)-2-(6-((2,2,6,6-tetramethylpiperidin-4-yl)oxy)pyridazin-3-yl)phenol]
Vc: 3.62 (Optimized value using GastroPlus ™ based on the 1/h | k12: 1.41 (Optimized value using GastroPlus ™ based on the 1/h | k21: 0.144 (Optimized value using GastroPlus ™ based on the 1/h
